Data: patent US12581252B2, “Substituted pyrrolo[3,4-b]pyridines as PI3K-α inhibitors” (Relay Therapeutics, Inc., priority 2020, dated 2026)

Biological target: H1047R PIK3CA enzyme (Homo sapiens, UniProt P42336, H1047R)
Test: ADP-Glo Biochemical PIK3CA Kinase Assay

H1047R PIK3CA enzyme, sequence (P42336 whole entry H1047R): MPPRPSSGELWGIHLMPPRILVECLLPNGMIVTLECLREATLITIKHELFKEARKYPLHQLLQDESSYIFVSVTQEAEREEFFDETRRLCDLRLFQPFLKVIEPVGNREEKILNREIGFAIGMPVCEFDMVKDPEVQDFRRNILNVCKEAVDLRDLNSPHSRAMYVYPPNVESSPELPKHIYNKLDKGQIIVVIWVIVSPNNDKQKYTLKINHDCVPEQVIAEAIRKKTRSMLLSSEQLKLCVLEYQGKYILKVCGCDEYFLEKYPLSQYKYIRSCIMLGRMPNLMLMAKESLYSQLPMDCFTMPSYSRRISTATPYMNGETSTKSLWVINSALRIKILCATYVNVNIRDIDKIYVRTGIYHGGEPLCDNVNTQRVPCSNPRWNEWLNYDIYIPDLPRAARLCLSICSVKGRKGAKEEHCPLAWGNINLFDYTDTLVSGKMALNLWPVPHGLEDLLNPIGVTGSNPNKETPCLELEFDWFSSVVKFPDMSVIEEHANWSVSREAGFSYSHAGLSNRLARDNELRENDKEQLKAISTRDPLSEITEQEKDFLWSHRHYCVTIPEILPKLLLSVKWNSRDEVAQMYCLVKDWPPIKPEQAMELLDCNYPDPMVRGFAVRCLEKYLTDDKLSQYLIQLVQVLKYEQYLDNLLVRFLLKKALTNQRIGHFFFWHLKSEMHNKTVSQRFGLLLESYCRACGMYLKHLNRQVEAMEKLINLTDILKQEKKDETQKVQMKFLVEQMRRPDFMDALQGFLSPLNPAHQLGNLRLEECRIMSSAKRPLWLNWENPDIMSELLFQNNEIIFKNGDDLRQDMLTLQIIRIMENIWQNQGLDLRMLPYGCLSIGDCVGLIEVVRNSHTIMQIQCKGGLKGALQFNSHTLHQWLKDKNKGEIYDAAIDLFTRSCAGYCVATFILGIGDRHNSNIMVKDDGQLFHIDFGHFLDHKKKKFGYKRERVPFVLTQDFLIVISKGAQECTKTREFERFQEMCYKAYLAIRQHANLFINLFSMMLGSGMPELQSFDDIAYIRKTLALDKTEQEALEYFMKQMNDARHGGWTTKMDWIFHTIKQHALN
H1047R PIK3CA enzyme, sequence (P27986 whole entry partner): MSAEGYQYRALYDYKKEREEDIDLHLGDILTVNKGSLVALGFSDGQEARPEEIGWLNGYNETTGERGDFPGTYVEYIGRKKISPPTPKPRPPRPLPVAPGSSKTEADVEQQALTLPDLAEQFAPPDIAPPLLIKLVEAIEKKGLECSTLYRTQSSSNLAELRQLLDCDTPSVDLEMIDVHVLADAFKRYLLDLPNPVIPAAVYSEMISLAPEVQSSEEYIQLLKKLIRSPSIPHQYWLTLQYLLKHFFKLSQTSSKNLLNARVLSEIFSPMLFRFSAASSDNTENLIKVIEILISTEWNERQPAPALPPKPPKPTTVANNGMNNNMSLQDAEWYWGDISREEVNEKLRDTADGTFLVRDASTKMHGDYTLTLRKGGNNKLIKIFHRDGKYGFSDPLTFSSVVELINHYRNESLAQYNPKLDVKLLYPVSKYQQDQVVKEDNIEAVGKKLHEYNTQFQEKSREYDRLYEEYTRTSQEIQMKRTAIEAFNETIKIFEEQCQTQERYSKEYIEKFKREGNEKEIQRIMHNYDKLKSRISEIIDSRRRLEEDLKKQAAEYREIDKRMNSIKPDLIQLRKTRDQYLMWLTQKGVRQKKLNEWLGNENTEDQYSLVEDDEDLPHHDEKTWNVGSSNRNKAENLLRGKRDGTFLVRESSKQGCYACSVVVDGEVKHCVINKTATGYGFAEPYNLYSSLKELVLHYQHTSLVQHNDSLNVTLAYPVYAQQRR

Row | SMILES | IC50
1 | CN1C[C@@H](Nc2cc(NC(=O)c3cc(F)cc(C(F)(F)F)c3)c3c(c2)C(=O)NC3c2cc(F)ccc2Cl)CC1=O (single isomer, unassigned) [Compound I-375] | ≤ 100 nM
2 | O=C(CO)Nc1cc(NC(=O)c2cc(F)cc(C(F)(F)F)c2)c2c(c1)C(=O)NC2c1cc(F)ccc1Cl (stereo not drawn) [Compound I-345] | ≤ 100 nM
3 | CC(C)(O)Cn1cc(-c2cc(NC(=O)c3cc(F)cc(C(F)(F)F)c3)c3c(c2)C(=O)N[C@@H]3c2cc(F)ccc2Cl)cn1 [Compound I-1096] | 10000 to 100000 nM
4 | O=C(Nc1cccc2c1C(C1=CCCCC1)NC2=O)c1cc(F)cc(C(F)(F)F)c1 (stereo not drawn) [Compound I-1629] | 1000 to 10000 nM
5 | CC(C)(O)c1cc(NC(=O)c2cc(F)cc(Cl)c2)c2c(c1)C(=O)NC2c1cc(F)ccc1Cl (stereo not drawn) [Compound I-214] | ≤ 100 nM
6 | C[C@@]1(C(=O)Nc2cc(Br)cc3c2[C@@H](c2cc(F)ccc2Cl)NC3=O)CCC[C@H](C(F)(F)F)C1 (single isomer, unassigned) [Compound I-2264] | 100 to 500 nM
7 | Cn1ccc2cc(-c3cc(NC(=O)c4cc(F)cc(C(F)(F)F)c4)c4c(c3)C(=O)NC4c3cc(F)ccc3Cl)ccc21 (stereo not drawn) [Compound I-853] | 100 to 500 nM
8 | CC1(Cc2cc(NC(=O)N3C[C@@](O)(C(F)(F)F)c4cc(F)ccc43)c3c(c2)C(=O)N[C@@H]3c2cc(F)ccc2Cl)COC1 (single isomer, unassigned) [Compound I-2658] | 1000 to 10000 nM
9 | O=C1NC(c2cc(F)ccc2Cl)c2c(NC(=O)N3CC(C(F)(F)F)CC(C(F)(F)F)C3)cc(Br)cc21 (racemic) [Compound I-661] | 1000 to 10000 nM
10 | N#Cc1cc(F)cc(C(=O)Nc2ccnc3c2C(c2ccccc2Cl)NC3=O)c1 (stereo not drawn) [Compound I-235] | 10000 to 100000 nM
11 | O=C(Nc1cc(Cc2ccc3c(c2)CNC3=O)cc2c1[C@@H](c1cc(F)ccc1Cl)NC2=O)c1cc(F)cc(C(F)(F)F)c1 (stereo in doubt) [Compound I-1613] | 100 to 500 nM
12 | O=C1N[C@@H](c2cc(F)ccc2Cl)c2c(NC(=O)N3CC[C@H]4CCCC[C@H]43)cccc21 [Compound I-2422] | 1000 to 10000 nM
13 | N#Cc1cc(Oc2cc(NC(=O)c3cc(F)cc(C(F)(F)F)c3)c3c(c2)C(=O)NC3c2cc(F)ccc2Cl)ccn1 (stereo not drawn) [Compound I-1130] | ≤ 100 nM
14 | O=C(CC1CCC(O)CC1)Nc1cc(-c2ccc3ncnn3c2)cc2c1C(c1cc(F)ccc1Cl)NC2=O (stereo not drawn) [Compound I-1913] | 10000 to 100000 nM
15 | C[C@@H](CCC(F)(F)F)C(=O)Nc1cccc2c1[C@H](c1cc(F)ccc1Cl)NC2=O [Compound I-2138] | 1000 to 10000 nM
16 | Cc1ccccc1C1NC(=O)c2cccc(NC(=O)N3CCCc4ccccc43)c21 (stereo not drawn) [Compound I-55] | 1000 to 10000 nM

Row | SMILES | IC50
17 | CS(=O)(=O)N1CC(Oc2cc(NC(=O)c3cc(F)cc(C(F)(F)F)c3)c3c(c2)C(=O)NC3c2cc(F)ccc2Cl)C1 (stereo not drawn) [Compound I-1346] | ≤ 100 nM
18 | O=C1NC(c2cc(F)ccc2Cl)c2c(NC(=O)C3CCCOC3)cc(-c3ccc4ncnn4c3)cc21 (stereo not drawn) [Compound I-1814] | 10000 to 100000 nM
19 | O=C1NC(c2cc(F)ccc2Cl)c2c(NC(=O)N3CCOC(C(F)(F)F)C3)cc(Br)cc21 (stereo not drawn) [Compound I-1810] | 1000 to 10000 nM
20 | CC1(c2ccccc2)NC(=O)c2cccc(NC(=O)c3csc4ccccc34)c21 (stereo not drawn) [Compound I-130] | 10000 to 100000 nM
21 | Cn1c(Cl)cc(C(=O)Nc2cc(Br)cc3c2C(c2cc(F)ccc2Cl)NC3=O)cc1=O (stereo not drawn) [Compound I-1209] | 10000 to 100000 nM
22 | O=C1NCc2c(NC(=O)c3csc4ccccc34)cccc21 [Compound I-3] | 10000 to 100000 nM
23 | O=C(Nc1cc(C2COC2)cc2c1[C@@H](c1cc(F)ccc1Cl)NC2=O)c1cc(F)cc(C(F)(F)F)c1 [Compound I-589] | ≤ 100 nM
24 | CC(=O)NCCOc1cc(NC(=O)c2cc(F)cc(C(F)(F)F)c2)c2c(c1)C(=O)NC2c1cc(F)ccc1Cl (racemic) [Compound I-1322] | 100 to 500 nM
25 | O=C(Nc1cc(-c2ccc3nc(Cl)nn3c2)cc2c1[C@@H](c1cc(F)ccc1Cl)NC2=O)c1cc(F)cc(C(F)(F)F)c1 [Compound I-1692] | 1000 to 10000 nM
26 | O=C1N[C@H](c2cc(F)ccc2Cl)c2c(NC(=O)N3C[C@@](O)(C(F)F)c4cc(F)ccc43)cccc21 (single isomer, unassigned) [Compound I-2556] | 500 to 1000 nM
27 | O=C1NC(c2cc(F)ccc2Cl)c2c(NC(=O)C3CNCCO3)cc(-c3ccc4ncnn4c3)cc21 (stereo not drawn) [Compound I-1900] | 10000 to 100000 nM
28 | Cc1ccccc1[C@H]1NC(=O)c2cccc(NC(=O)c3csc4ccccc34)c21 [Compound I-4] | 500 to 1000 nM
29 | CS(=O)(=O)n1cc(-c2cc(NC(=O)c3cc(F)cc(C(F)(F)F)c3)c3c(c2)C(=O)N[C@@H]3c2cc(F)ccc2Cl)cn1 [Compound I-1995] | 500 to 1000 nM
30 | C[C@@](O)(CC#N)c1cc(NC(=O)c2cc(F)cc(C(F)(F)F)c2)c2c(c1)C(=O)N[C@H]2c1cc(F)ccc1Cl (single isomer, unassigned) [Compound I-1395] | ≤ 100 nM
31 | N#CC[C@@H](O)c1cc(NC(=O)c2cc(F)cc(C(F)(F)F)c2)c2c(c1)C(=O)N[C@H]2c1cc(F)ccc1Cl (single isomer, unassigned) [Compound I-1393] | ≤ 100 nM

More lines, now with the values ahead:

Row | IC50 | SMILES
32 | 10000 to 100000 nM | CC(O)c1cc(-c2ccc3ncnn3c2)cc2c1C(c1cc(F)ccc1Cl)NC2=O (stereo not drawn) [Compound I-1907]
33 | 10000 to 100000 nM | CC(C)(O)c1cc(NC(=O)c2cc(F)cc(C(F)(F)F)c2)c2c(c1)C(=O)N[C@@H]2c1cc(F)ccc1C(F)F [Compound I-263]
34 | 1000 to 10000 nM | CS(=O)(=O)c1cc(NC(=O)c2cc(F)cc(C(F)(F)F)c2)c2c(c1)C(=O)NC2(c1cc(F)ccc1Cl)S(=O)(=O)O (stereo not drawn) [Compound I-1296]
35 | ≤ 100 nM | O=C(Nc1cc(Br)cc2c1C(c1cc(F)ccc1Cl)NC2=O)c1cc(F)cc([N+](=O)[O-])c1 (stereo not drawn) [Compound I-832]
36 | ≤ 100 nM | CC(=O)Nc1cc(NC(=O)c2cc(F)cc(C(F)(F)F)c2)c2c(c1)C(=O)NC2c1cc(F)ccc1Cl (stereo not drawn) [Compound I-423]
37 | 100 to 500 nM | N#Cc1cncn1Cc1cc(NC(=O)c2cc(F)cc(C(F)(F)F)c2)c2c(c1)C(=O)N[C@@H]2c1cc(F)ccc1Cl (stereo in doubt) [Compound I-1749]
38 | ≤ 100 nM | N#Cc1cc(NC(=O)c2cc(F)cc(Cl)c2)c2c(c1)C(=O)NC2c1cc(F)ccc1Cl (stereo not drawn) [Compound I-531]
39 | ≤ 100 nM | N#Cc1cn(-c2cc(NC(=O)c3cc(F)cc(C(F)(F)F)c3)c3c(c2)C(=O)NC3c2cc(F)ccc2Cl)cn1 (stereo not drawn) [Compound I-1127]
40 | ≤ 100 nM | CN(C)S(=O)(=O)n1nccc1-c1cc(NC(=O)c2cc(F)cc(C(F)(F)F)c2)c2c(c1)C(=O)N[C@H]2c1cc(F)ccc1Cl [Compound I-1599]
41 | 1000 to 10000 nM | O=C(Nc1cc(Br)cc2c1C(c1cc(F)ccc1Cl)NC2=O)c1cc(F)cc(CC(F)F)c1 (stereo not drawn) [Compound I-1745]
42 | 1000 to 10000 nM | O=C1N[C@@H](c2cc(F)ccc2Cl)c2c(NC(=O)N3C[C@@H](CO)[C@H](C(F)(F)F)C3)cccc21 (single isomer, unassigned) [Compound I-2277]
43 | 500 to 1000 nM | Cc1ccccc1[C@H]1NC(=O)c2cccc(NC(=O)c3nsc4ccccc34)c21 [Compound I-73]
44 | ≤ 100 nM | O=C1Cc2cc(-c3cc(NC(=O)c4cc(F)cc(C(F)(F)F)c4)c4c(c3)C(=O)NC4c3cc(F)ccc3Cl)ccc2N1 (stereo not drawn) [Compound I-1041]
45 | 1000 to 10000 nM | CCC1C(C)CCN1C(=O)Nc1cccc2c1C(c1cc(F)ccc1Cl)NC2=O (mixture of isomers) [Compound I-2394]
